Measured values: patent publication US11739078B2, “Methods of inhibiting kinases” (INSILICO MEDICINE IP LIMITED, priority 2019, dated 2023)

Experiments:
[1] = tested on: collagen type 1 alpha 1 (COL1A1) mRNA expression; experiment: Collagen production assay (COL1A1 mRNA expression); type: cell-based
Protocol: HDF/TERT166 working lot cells can be thawed from liquid nitrogen and expanded using standard conditions (Medium: DMEM/Ham's F12 basal medium supplemented with 1× GlutaMax-I and 10% FBS without antibiotics; 37° C. 5% CO2). For performing the treatment, cells can be seeded at a cell density of 7500 cells/cm^2 in 12-well plates the day before the first treatment. Cells can be seeded in starvation medium (DMEM/Ham's F12 basal medium supplemented with 1× GlutaMax-I and 0.5% FBS without antibiotics). Approximately 24 hours after seeding the substances can be dissolved in DMSO (stocks: 10 mM) and diluted in starvation medium to a final concentration of 10 μM. Half of this working dilution can be supplemented with 100 pg/mL TGFbeta. For each substance, two wells can be treated with a 10 μM concentration of the substance and a 10 μM concentration supplemented with 100 pg/mL TGF-beta. In parallel, cells can be treated with 100 pg/mL TGF-beta alone. Cells in starvation medium can serve as a control. For all cells treatment can be done by performing a medium exchange. […]
RNA extraction can be performed with 200 μL Chloroform, and phase separation can be achieved by centrifugation for 15 min at 12,000 g at 4° C. […] RNA concentration can be determined spectrophotometrically with a Nanodrop instrument. […]

MAP4K4 (h) = MAP4K4 (h) (Homo sapiens (Human), UniProt O95819); experiment: MAP4K4 in vitro kinase assay (radiometric); type: biochemical; settings: read-out: MAP4K4_IC50
Sequence of MAP4K4 (h) (O95819 whole entry): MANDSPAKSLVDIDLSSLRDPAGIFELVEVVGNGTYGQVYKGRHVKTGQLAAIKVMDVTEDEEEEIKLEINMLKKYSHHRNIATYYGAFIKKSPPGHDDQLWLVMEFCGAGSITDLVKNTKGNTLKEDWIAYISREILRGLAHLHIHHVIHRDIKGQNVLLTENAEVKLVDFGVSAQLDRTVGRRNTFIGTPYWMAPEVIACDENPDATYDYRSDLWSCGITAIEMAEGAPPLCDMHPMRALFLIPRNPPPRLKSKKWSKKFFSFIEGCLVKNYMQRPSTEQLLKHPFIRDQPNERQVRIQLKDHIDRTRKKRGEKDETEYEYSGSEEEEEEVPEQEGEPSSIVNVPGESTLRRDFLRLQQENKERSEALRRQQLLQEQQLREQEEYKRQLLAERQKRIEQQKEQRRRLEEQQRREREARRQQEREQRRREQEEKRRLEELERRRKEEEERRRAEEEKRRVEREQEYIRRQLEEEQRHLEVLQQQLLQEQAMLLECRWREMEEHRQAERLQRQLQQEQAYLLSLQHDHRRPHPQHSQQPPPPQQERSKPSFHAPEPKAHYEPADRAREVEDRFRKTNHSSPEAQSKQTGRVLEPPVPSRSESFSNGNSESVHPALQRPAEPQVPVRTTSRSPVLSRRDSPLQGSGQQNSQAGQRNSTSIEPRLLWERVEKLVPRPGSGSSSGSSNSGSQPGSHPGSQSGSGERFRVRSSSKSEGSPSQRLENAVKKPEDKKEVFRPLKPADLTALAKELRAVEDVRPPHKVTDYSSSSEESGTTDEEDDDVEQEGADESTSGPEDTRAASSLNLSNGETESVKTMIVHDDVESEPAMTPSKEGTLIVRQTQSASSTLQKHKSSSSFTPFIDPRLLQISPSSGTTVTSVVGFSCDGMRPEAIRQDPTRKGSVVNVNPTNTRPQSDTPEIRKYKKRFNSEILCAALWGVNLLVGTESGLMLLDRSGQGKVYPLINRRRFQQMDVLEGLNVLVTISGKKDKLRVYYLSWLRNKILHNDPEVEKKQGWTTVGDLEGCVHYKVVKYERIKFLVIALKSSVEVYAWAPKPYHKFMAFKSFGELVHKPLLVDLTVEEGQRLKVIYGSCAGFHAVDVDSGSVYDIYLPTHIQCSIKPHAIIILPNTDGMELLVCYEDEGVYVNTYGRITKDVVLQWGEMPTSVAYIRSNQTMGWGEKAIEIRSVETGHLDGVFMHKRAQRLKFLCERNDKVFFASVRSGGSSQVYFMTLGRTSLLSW
Protocol: (§1) (specific activity and concentration as required). The reaction is initiated by the addition of the Mg/ATP mix. After incubation for 40 minutes at room temperature, the reaction is stopped by the addition of phosphoric acid to a concentration of 0.5%.

TNIK = TNIK (Homo sapiens (Human), UniProt Q9UKE5); experiment: TNIK enzymatic assay (radiometric kinase inhibition); type: biochemical; settings: read-out: TNIK_IC50
Sequence of TNIK (Q9UKE5 whole entry): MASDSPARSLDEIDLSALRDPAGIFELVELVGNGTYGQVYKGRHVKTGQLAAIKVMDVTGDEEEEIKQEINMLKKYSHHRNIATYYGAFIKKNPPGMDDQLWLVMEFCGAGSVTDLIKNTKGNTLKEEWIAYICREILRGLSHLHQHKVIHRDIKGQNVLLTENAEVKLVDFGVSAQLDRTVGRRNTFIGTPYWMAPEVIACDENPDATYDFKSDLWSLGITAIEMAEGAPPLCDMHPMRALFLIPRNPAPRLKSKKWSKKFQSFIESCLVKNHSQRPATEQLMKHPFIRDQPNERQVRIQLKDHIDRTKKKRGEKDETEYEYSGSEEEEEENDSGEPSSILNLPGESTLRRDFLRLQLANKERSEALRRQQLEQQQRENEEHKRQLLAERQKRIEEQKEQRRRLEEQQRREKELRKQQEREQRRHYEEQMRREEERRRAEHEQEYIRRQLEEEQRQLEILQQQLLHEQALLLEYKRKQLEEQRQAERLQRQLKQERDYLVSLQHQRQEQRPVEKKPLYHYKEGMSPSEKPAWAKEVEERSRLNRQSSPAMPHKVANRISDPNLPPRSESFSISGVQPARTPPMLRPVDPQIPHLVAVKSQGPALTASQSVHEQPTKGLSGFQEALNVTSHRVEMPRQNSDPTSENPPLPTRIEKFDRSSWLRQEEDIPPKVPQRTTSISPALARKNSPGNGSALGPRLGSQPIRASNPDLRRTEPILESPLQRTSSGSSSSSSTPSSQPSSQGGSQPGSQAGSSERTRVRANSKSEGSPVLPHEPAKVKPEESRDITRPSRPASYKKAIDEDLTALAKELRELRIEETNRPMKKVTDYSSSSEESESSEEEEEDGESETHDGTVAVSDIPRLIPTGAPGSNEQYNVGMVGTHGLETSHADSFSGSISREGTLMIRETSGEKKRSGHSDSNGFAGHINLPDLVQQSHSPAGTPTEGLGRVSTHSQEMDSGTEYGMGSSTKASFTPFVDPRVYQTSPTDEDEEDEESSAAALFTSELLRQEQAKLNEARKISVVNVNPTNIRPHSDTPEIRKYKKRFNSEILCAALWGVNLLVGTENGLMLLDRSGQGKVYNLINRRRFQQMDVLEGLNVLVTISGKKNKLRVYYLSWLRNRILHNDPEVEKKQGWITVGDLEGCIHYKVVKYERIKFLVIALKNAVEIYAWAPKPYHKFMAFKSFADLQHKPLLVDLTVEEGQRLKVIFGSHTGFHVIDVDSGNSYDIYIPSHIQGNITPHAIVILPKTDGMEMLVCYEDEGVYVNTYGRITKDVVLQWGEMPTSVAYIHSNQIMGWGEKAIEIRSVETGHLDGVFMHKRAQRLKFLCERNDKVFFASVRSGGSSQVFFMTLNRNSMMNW
Protocol: as §1, with “The compounds were studied for function as TNIK inhibitors to generate the data of Table 1. […] (specific” for “(specific”

[2] = tested on: Human hepatic stellate cell LX-2; experiment: LX-2 fibrosis assay, collagen production; type: cell-based; settings: LX-2 cells stimulated with 4 ng/mL TGF-b for 48 hours, Western blot
Protocol: Human hepatic stellate cell LX-2 were grown in DMEM (Invitrogen, 11960) supplied with 1% MEM Non-Essential Amino Acids (Invitrogen, 11140-050), 2% fetal bovine serum (Hyclone, SV30087.03), Penicillin (100 U/mL)-streptomycin (100 μg/mL) (Millipore, TMS-AB2-C) and 2 mM L-Glutamine (Invitrogen, 25030-001). After the cells grew in 12-well plates for 24 hours, the cell culture medium was changed to the same as above except using 0.4% fetal bovine serum. After 20 hour growth in the reduced serum medium, the cells were treated with indicated doses of compounds for 30 minutes. Subsequently, the cells were stimulated with 4 ng/mL TGF-b (R&D Systems, 240-B-002) for 48 hours. The cells were rinsed twice with DPBS before being harvested with 100 μL RIPA buffer (Sigma, R10278) supplemented with protease inhibitor cocktail (Roche, 04693132001) at 4° C. The total protein in each sample was quantified using BCA Protein Assay Kit (Pierce™, 23227) and equal amount of total protein of each sample was subject to Western blot analysis. Antibodies used were mouse anti-α-Actin (SPM332) ([…]), mouse anti-CTGF (E5) ([…]), and mouse anti-collagen α1 (3G3) (sc-293182), from Santa Cruz Biotechnologies; and mouse anti-GAPDH (6C5) (EMD Millipore, MAB374).

| SMILES | collagen type 1 alpha 1 (COL1A1) mRNA expression [1] | effect of TGF-beta treatment on the COL1A1 mRNA expression ([1]; with TGF-beta treatment) | IC50 (MAP4K4 (h)) [nM] | IC50 (TNIK) [nM] | EC50 ([2]; Homo sapiens, LX-2, 48 h) [µM] | EC50 [2] [µM] |
| --- | --- | --- | --- | --- | --- | --- |
| CC(=O)Nc1ccc(C(=O)Nc2sc(Nc3ccccc3)nc2C(N)=O)cc1 [5-(4-acetamidobenzamido)-2-(phenylamino)-1,3-thiazole-4-carboxamide] | decreased | inhibited | – | – | – | – |
| O=C(Nc1cc[nH]c(=O)c1)c1ccc(-c2c(-c3ccc(F)cc3)ncn2C2COC2)o1 [Compound A-46, 5-(4-(4-fluorophenyl)-1-(oxetan-3-yl)-1H-imidazol-5-yl)-N-(2-oxo-1,2-dihydropyridin-4-yl)furan-2-carboxamide] | – | – | 8300 | 5380 | > 10 | – |
| Cn1cnc(-c2ccc(F)cc2)c1-c1ccc(C(=O)Nc2ccncc2F)o1 [Compound A-49, 5-(4-(4-fluorophenyl)-1-methyl-1H-imidazol-5-yl)-N-(3-fluoropyridin-4-yl)furan-2-carboxamide] | – | – | > 1000 | 125 | 0.401 | – |
| O=C(Nc1ccncc1F)c1ccc(-c2c(-c3ccc(F)cc3)ncn2C2COCC2F)o1 (stereo not drawn) [Compound A-53, S-(4-(4-fluorophenyl)-1-(4-fluorotetrahydrofuran-3-yl)-1H-imidazol-S-yl)-N-(3-fluoropyridin-4-yl)furan-2-carboxamide] | – | – | 337 | 191 | – | 1.98 |
| O=C(Nc1ccncn1)c1ccc(-c2c(-c3ccc(F)cc3)ncn2C2COCC2F)o1 (centres unmarked) [Compound A-55, 5-(4-(4-fluorophenyl)-1-(4-fluorotetrahydrofuran-3-yl)-1H-imidazol-5-yl)-N-(pyrimidin-4-yl)furan-2-carboxamide] | – | – | 301 | 91 | 0.437 | – |
| Cc1cc(NC(=O)c2ccc(-c3c(-c4ccc(F)cc4)ncn3C3COCC3F)o2)c(F)cn1 (centres unmarked) [Compound A-58, N-(5-fluoro-2-methylpyridin-4-yl)-5-(4-(4-fluorophenyl)-1-(4-fluorotetrahydrofuran-3-yl)-1H-imidazol-5-yl)furan-2-carboxamide] | – | – | 95.4 | 75.2 | 0.669 | – |
